According to publication PMC2196313 (The Journal of Experimental Medicine, 1997):

Columns and labels:
[1] = system: CTL clone B3; settings: cited from earlier work
[2] = system: CTL clone E8; type: cell-based, mouse (C57BL/6)
[3] = system: CTL clone 4G3; type: cell-based, mouse
[4] = system: TCR of CTL clone G9a; type: cell-based, mouse (C57BL/6)
[5] = system: CTL clone E8; type: cell-based, mouse (C57BL/6); remark: listed apart in the source

For SIIG FEK ^* L [O7(N4G)], the “antagonism for clone B3” value [1] is listed as “potent antagonist”, the “inhibition of specific target cell lysis by clone E8” value [2] is listed as “comparatively poor inhibitors” and the “inhibition of specific target cell lysis by clone 4G3” value [3] is listed as “most sensitive”.
With SIIR FEK ^* L [O7(N4R)] the “inhibition of agonist-induced loss of surface TCR on clone G9a” value [4] was “had no effect”, the “inhibition of specific target cell lysis by clone E8” value [2] was “no effect within the concentration range tested” and the “cold target inhibition of lysis by clone E8” value [5] was “indistinguishable from RMA cells without added peptide”.
